Reference: patent US8193200B2, “Antagonists of A2B adenosine receptors for treatment of inflammatory bowel disease” (University of Virginia Patent Foundation, priority 2007, dated 2012)

Legend:
[1] = target: T1, A2b receptor (Homo sapiens, UniProt P29275); assay: cAMP measurement in adenosine-stimulated T84 cells; format: cell-based; settings: T84 monolayers, adenosine 100 μM, ATL-801 100 μM; unstimulated 1.7±0.05, adenosine alone 4.7±0.66
T1 construct: endogenous in cells; host or cells: T84 cells
T1 sequence (P29275 1-332): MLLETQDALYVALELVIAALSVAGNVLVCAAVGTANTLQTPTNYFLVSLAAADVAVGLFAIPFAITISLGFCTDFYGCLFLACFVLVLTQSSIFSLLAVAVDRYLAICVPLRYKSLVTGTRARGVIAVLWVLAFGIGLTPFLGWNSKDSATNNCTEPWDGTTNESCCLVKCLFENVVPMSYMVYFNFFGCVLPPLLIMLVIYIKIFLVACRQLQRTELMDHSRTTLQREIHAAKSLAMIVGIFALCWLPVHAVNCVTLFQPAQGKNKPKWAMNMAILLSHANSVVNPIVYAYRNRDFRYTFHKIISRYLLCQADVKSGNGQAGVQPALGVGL
Method: T84 cells were stimulated with adenosine (100 μM) or forskolin (10 μM) for 7 min, with or without ATL-801 (100 μM). Total cell lysates were processed in the presence of IBMX (phosphodiesterase inhibitor). cAMP levels were measured in whole cell lysates using a competitive cAMP immunoassay kit (Applied Biosystems, Bedford, Mass.) according to the manufacturer's instructions. Luminescence was read with a Luminoscan Ascent plate reader (Thermo Labsystems, Needham Heights, Mass.).

[2] = target: T2, A2b receptor (Mus musculus, UniProt Q60614); assay: Ussing chamber Isc (chloride secretion) in murine colonic mucosal stripping; settings: mouse colonic mucosa
T2 construct: Murine colonic mucosal stripping from the distal colon was mounted on Ussing chamber; from tissue; host or cells: mouse distal colon mucosa, stripped of external muscle
T2 sequence (Q60614 1-332): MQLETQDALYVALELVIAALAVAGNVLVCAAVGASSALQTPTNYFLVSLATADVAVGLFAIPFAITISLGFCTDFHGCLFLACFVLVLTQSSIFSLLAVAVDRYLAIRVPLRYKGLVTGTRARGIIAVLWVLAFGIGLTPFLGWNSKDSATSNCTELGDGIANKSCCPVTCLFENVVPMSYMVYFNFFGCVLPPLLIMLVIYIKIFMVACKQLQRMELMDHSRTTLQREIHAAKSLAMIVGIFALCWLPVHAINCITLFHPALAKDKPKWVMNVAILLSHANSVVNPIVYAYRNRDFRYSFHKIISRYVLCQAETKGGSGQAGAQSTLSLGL
Method: Electrophysiologic studies were performed as described previously Mice were euthanized by CO2/hypothermia. The colon was removed and opened along the mesenteric border. The colon was then stripped of its external muscle by blunt dissection. A of mucosa from distal colon was used for Using chamber studies. After a sustained baseline Isc, mucosal layers were stimulated with adenosine (100 μM) and forskolin (FSK 10 μM). Antagonist was added to both bathing solutions before stimulating with adenosine.

[3] = system: T84 cells; assay: Flagellin-induced IL-8 secretion in T84 cells (ELISA); format: cell-based
[4] = system: C57BL/6 mice with DSS-induced colitis; assay: DSS-induced colitis: clinical and histological scoring, colon weight and length; format: in vivo, mouse; settings: for Total Lesion Score (histological score): score range 0-11, DSS 9.1 ± 2.1
Method: Colitis was induced in male C57BL/6 mice by oral administration of DSS (molecular wt. 50000; ICN Biomedicals, Aurora, Ohio) at 3% (wt/vol) in tap water ad libitum for 6 days. Age-matched male wild-type C57BL6 mice receiving tap water served as controls. Mice were observed daily and evaluated for changes in body weight and development of clinical symptoms. Mice were given ATL-801 10 mg/Kg diet approximately 20 μg/day/mice) during the administration of DSS.
Assessment of body weights, stool consistency, and the presence of occult/gross blood by a guaic test (Hemoccult Sensa; Beckman Coulter, Fullerton, Calif.) were performed daily for each mouse. Colitis was quantified with a clinical and histological score, as described by Cooper, et. al. Clinical score was based on weight loss, stool consistency, and fecal blood (score range 0-12). Histological scoring was performed based on three variables, extent of inflammatory infiltrate, mucosal ulcers and severity of crypt (score range 0-11). IL-10^−/− mouse colon histological scoring (ranging from 0 to 4) was performed as described by Berg, et. al. to assess intestinal lesions and their severity.

[5] = system: myeloperoxidase (MPO) activity, neutrophil infiltration into colon; assay: Myeloperoxidase assay in colon, DSS colitis; format: in vivo, mouse; settings: DSS 3% 6 days, ATL-801 10 mg/kg in diet
Method: Neutrophil infiltration into colon was quantified by measuring myeloperoxidase (MPO) activity as described previously. One unit of MPO activity was defined as the amount that degraded 1 μmol of […] per minute at 25° C. The results were expressed as absorbance per μg of protein.

With `CCCn1c(=O)n(C2CC2)c(=O)c2[nH]c(-c3ccc(N(CC)C(=O)c4cccnc4)nc3)nc21` [ATL-801] the “adenosine mediated cAMP levels, adenosine+ATL-801” value [1] was 0.2±0.06 pmoles/10^6 cells, the “ΔIsc, ATL-801+Adenosine” value ([2]; ATL-801 100 μM before adenosine 100 μM, adenosine alone 7.9 μA) was 1.9 μA and the “ΔIsc, ATL-801+FSK” value ([2]; ATL-801 100 μM, forskolin 10 μM) was 10 μA. For the same compound, the “inhibition of flagellin-induced IL-8 secretion” value ([3]; ATL-801 100 μM 30 min, then flagellin 100 ng/ml 5 hours) was 60%, the IL-8 in media, Flagellin+ATL-801 ([3]; ATL-801 100 μM, flagellin 100 ng/ml 5 h, control 206±18.5, flagellin 1126) was 769 ± 13.6 pg/mL and the IL-8 in media, ATL-801 alone ([3]; ATL-801 100 μM, no flagellin, control 206±18.5) was 101 ± 34.6 pg/mL. For the same compound, the “Ulceration (histological assessment)” value ([4]; 3% DSS 6 days + ATL 10 mg/Kg, DSS 2.6 ± 0.6) was 1.0 ± 1, the “Crypt Damage (histological assessment)” value ([4]; 3% DSS 6 days + ATL 10 mg/Kg, DSS 2.8 ± 1.5) was 1.9 ± 0.6 and the “Inflammation (histological assessment)” value ([4]; 3% DSS 6 days + ATL 10 mg/Kg, DSS 3.7 ± 0.2) was 1.2 ± 0.2. The “Total Lesion Score (histological score)” value ([4]; 3% DSS 6 days + ATL 10 mg/Kg) was 4.1 ± 1.8, the “Total Lesion Score (histological score)” value ([4]; 3% DSS 6 days + ATL 10 mg/Kg, listed as antagonist) was 4.1±1.8 and the “clinical score (clinical disease activity score)” value ([4]; DSS 3% 6 days + ATL-801 10 mg/Kg in diet, score range 0-12, DSS alone 9.4±1.1) was 4.4±1.5. The colon length ([4]; DSS 6 days + antagonist 10 mg/Kg, DSS alone 4.5±0.26 cm) was 6.04±0.16 cm, the colon weight ([4]; DSS + A2b antagonist, colon with solid stool pellets, DSS alone 0.26±0.03 g) was 0.48 ± 0.03 g and the stool consistency ([4]; DSS + A2b receptor antagonist, DSS-fed mice had watery diarrhea) was “solid stools”. The “colon length, group not administered DSS” value ([4]; antagonist without DSS, vehicle 6.5±0.25) was 7.5 cm, the “adverse effects on clinical score, ATL-801 alone” value ([4]; mice given ATL-801 alone, no DSS) was “did not show any adverse affects on clinical score” and the “histological signs of inflammation, water control group receiving antagonist” value ([4]; no DSS) was “not detected”. The “MPO activity, DSS alone relative to antagonist and DSS” value [5] was 5 fold.
